Like-named read-outs stand apart in the source and are kept apart here.

Type in all cases: biochemical
One experiment deals with T1, PI3Kα (Homo sapiens, UniProt P42336).
T1 construct: purchased Promega V1721
The experiment is described as follows: Ki for PI3Kα (Promega ADP-Glo Lipid Kinase System). The source says: The Promega V1721 ADP-Glo Lipid Kinase System was used as per the Promega technical manual. The analysis was done in triplicate on three 96-well plates. The plates were read and the data were processed with GraphPad Prism 7.0.

A further experiment has as its target p110delta (Homo sapiens, UniProt O00329). As to the kind of experiment: PI3K kinase assay (ADP-Glo), p110delta. Conditions: final ATP 25 μM. As to the method:
(§1) Summary of PI3K Kinase Assay
(§2) 1. Prepare 1.25× enzyme/substrate: mix equal volume of 2.5× enzyme (in 2.5× reaction buffer) and 2.5× substrate (final 0.05 mg/ml) (in 2.5× lipid dilution buffer);
(§3) 2. Add 4 μl of 1.25× enzyme/substrate mixture to 384-well low volume white plate;
(§4) 3. Add 0.1 μl of increasing concentrations of compound diluted in DMSO;
(§5) 4. Incubate at r.t. for 30 min;
(§6) 5. Dispense 1 μl of 250 μM ATP diluted in ddH2O. The final ATP was 25 μM;
(§7) 6. Incubate at r.t. for 1 h;
(§8) 7. Add 5 μl of ADP-Glo with 10 mM MgCl2;
(§9) 8. Incubate at r.t. for 40 min;
(§10) 9. Add 10 μl of kinase detection buffer;
(§11) 10. Incubated at r.t. for 30 min; and
(§12) 11. Read luminescence signal using Envision multilabel plate reader.
(§13) The effect of compound on kinase activity is expressed as % of control and calculated as the following equation: % of Control=(Lum compound−Lum blank)/(Lum vehicle control−Lum blank)×100 • * blank is the substrate only without enzyme, which is the background signal control.
(§14) The experiment was repeated twice on different days at triplicates per sample.

In another experiment the target is p110beta (Homo sapiens, UniProt P42338). As to the kind of experiment: PI3K kinase assay (ADP-Glo), p110beta. Particulars: final ATP 25 μM. How it is done:
as §1, §2, §3, §4, §5, §6, §7, §8, §9, §10, §11, §12, §13, §14

For another experiment, the target named is p110alpha (Homo sapiens, UniProt P42336). The experiment is described as follows: PI3K kinase assay (ADP-Glo), p110alpha. Particulars: final ATP 25 μM. As to the method:
as §1
Enzyme optimization: After optimization, the following concentrations of Enzyme are used to compound testing: P110alpha 1 μg/ml,
as §2, §3, §4, §5, §6, §7, §8, §9, §10, §11, §12, §13, §14

In a further experiment the target is p120gamma (Homo sapiens, UniProt P48736). As to the kind of experiment: PI3K kinase assay (ADP-Glo), p120gamma. Conditions: final ATP 25 μM. How it is done: as §1, §2, §3, §4, §5, §6, §7, §8, §9, §10, §11, §12, §13, §14
Sequence of p120gamma (P48736 whole entry): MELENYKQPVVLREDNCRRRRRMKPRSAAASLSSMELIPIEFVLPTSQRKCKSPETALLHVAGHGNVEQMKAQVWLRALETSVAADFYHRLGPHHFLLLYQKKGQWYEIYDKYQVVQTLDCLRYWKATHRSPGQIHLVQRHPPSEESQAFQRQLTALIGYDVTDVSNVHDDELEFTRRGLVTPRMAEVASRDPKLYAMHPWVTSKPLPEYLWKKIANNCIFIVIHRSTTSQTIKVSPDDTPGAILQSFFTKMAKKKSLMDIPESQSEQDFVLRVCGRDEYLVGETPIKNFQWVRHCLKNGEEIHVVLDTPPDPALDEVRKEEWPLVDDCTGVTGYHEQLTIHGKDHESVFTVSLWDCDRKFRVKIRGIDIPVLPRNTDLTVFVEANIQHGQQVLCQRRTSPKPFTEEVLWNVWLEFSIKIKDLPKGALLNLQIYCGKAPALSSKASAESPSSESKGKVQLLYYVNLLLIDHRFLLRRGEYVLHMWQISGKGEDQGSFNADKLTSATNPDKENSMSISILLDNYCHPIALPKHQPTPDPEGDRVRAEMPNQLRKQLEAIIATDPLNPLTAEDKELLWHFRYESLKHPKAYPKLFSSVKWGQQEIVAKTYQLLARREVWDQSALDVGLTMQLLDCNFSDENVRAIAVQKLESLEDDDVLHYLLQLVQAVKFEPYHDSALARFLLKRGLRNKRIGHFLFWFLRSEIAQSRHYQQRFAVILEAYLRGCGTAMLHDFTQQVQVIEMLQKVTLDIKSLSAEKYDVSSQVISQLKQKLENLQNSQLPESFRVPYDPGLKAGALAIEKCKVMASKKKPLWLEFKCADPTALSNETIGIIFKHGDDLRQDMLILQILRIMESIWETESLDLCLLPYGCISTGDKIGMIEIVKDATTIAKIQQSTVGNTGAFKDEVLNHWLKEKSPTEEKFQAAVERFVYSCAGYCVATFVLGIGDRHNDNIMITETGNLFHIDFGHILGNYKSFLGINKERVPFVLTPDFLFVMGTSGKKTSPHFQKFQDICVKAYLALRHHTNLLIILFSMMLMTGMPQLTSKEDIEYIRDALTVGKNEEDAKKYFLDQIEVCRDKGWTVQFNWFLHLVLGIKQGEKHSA
Setting [1] is: Exp. 1, read-out: IC50 p110delta Exp. 1.
The mark [2] stands for this setting: Exp. 2, read-out: IC50 p110delta Exp. 2.
Where [3] appears, read: Exp. 1, read-out: IC50 p110beta Exp. 1.
Setting [4] is: Exp. 2, read-out: IC50 p110beta Exp. 2.
Setting [5] is: Exp. 1, read-out: IC50 p110alpha Exp. 1.
Where [6] appears, read: Exp. 2, read-out: IC50 p110alpha Exp. 2.
The mark [7] stands for this setting: Exp. 1, read-out: IC50 p120gamma Exp. 1.
The mark [8] stands for this setting: Exp. 2, read-out: IC50 p120gamma Exp. 2.

Sequence of p110delta (O00329 whole entry): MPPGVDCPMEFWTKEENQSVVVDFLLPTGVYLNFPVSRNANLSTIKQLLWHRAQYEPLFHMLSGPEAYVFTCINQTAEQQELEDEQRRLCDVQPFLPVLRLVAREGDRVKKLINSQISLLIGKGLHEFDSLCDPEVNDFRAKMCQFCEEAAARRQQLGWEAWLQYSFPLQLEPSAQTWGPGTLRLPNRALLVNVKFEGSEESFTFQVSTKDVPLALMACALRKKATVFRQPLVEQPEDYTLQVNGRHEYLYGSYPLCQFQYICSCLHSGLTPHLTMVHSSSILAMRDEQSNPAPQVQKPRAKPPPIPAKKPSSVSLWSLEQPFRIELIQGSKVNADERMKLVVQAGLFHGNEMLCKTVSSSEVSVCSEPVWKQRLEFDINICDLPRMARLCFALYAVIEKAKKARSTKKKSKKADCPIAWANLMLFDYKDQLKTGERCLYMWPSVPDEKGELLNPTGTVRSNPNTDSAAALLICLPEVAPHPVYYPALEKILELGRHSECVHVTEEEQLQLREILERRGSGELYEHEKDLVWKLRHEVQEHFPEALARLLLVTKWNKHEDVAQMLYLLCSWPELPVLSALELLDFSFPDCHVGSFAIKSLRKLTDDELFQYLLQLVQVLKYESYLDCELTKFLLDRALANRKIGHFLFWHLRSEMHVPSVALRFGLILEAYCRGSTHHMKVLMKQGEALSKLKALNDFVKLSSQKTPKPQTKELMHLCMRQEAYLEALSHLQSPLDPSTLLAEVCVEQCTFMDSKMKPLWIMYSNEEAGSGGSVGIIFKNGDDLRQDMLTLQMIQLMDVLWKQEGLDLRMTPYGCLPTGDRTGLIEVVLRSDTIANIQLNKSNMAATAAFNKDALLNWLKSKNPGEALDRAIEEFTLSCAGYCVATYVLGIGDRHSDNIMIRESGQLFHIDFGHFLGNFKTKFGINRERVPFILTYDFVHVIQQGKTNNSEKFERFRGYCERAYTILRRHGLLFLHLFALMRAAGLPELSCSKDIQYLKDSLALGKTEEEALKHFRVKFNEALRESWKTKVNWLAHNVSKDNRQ
Sequence of p110delta (P27986 whole entry partner): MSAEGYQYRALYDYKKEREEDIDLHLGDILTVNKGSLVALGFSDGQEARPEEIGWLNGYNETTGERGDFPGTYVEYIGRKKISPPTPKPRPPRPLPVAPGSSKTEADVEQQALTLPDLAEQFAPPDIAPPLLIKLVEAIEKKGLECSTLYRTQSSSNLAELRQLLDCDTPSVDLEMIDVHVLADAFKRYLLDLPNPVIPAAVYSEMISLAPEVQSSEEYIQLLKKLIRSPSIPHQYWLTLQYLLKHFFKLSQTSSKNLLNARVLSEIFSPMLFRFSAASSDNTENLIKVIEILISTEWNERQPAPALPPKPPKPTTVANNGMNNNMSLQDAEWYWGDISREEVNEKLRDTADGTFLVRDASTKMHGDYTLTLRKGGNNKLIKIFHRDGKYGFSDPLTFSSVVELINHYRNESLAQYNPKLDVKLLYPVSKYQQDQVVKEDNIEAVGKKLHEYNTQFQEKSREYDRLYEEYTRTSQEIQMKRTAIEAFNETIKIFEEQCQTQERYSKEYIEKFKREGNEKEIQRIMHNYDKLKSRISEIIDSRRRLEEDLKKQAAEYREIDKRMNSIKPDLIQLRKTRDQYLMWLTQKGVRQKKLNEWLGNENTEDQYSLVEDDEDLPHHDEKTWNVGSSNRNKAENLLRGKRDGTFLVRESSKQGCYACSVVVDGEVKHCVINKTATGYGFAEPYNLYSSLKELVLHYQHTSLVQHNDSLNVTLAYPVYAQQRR
T1 sequence (P42336 whole entry): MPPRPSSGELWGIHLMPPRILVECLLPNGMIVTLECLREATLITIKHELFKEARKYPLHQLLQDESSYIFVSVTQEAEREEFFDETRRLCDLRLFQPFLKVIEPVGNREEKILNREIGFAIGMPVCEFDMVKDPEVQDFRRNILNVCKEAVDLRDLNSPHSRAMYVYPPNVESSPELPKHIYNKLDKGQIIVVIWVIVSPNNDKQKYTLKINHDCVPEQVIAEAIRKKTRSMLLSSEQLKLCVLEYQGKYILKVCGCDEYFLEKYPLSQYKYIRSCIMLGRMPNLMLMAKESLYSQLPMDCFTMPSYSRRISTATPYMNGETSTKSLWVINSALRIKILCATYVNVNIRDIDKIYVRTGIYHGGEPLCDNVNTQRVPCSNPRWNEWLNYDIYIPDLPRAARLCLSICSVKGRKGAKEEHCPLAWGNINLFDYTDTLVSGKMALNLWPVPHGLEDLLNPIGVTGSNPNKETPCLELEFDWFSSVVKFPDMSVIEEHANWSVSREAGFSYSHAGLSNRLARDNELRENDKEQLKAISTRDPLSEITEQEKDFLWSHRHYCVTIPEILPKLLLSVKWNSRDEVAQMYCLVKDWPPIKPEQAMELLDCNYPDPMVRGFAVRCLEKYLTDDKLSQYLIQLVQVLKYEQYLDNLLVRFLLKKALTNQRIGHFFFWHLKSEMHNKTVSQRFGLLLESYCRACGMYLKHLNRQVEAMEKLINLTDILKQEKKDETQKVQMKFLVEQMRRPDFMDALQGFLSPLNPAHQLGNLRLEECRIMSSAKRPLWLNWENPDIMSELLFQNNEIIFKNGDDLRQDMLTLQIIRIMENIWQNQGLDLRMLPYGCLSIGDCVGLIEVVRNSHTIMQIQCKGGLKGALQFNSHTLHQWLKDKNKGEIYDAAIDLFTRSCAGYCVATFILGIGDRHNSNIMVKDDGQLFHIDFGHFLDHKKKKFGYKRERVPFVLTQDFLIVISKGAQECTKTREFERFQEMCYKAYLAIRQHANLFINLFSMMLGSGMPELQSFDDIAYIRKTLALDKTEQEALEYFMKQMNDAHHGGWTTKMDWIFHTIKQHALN
T1 sequence (P27986 whole entry partner): as the sequence (P27986 whole entry partner) above
Sequence of p110alpha (P42336 whole entry): as the sequence (P42336 whole entry) above
Sequence of p110alpha (P27986 whole entry partner): as the sequence (P27986 whole entry partner) above

As for `CCc1nc(-c2cnc3ccc(-c4cncc(NS(=O)(=O)c5ccccc5)c4)cn23)no1`, at PI3Kα, the Ki was 0.043 µM.

For `Nc1ccc(-c2cccc3c(=O)cc(N4CCOCC4)oc23)cc1` [PI 828, reference compound], the IC50 at p110delta (setting [1]) worked out at 0.308 µM; at p110delta (setting [2]) it was 0.203 µM; on p110beta (setting [3]), 0.244 µM; at p110beta (setting [4]), 0.242 µM; on p110alpha (setting [5]), 0.351 µM; at p110alpha (setting [6]) it was 0.349 µM. Also, the figures for the IC50 on p120gamma (setting [7]) and at p120gamma (setting [8]) were 1.92 µM and 2.14 µM, respectively.

With `COc1ncc(-c2cnc3ccc(-c4cncc(NS(=O)(=O)c5ccccc5)c4)cn23)cn1` [TK2-67p3-36 (6b), N-(5-(3-(2-methoxypyrimidin-5-yl)imidazo[1,2-a]pyridin-6-yl)pyridin-3-yl)benzenesulfonamide], the IC50 on p110delta (setting [1]) stood at 0.0335 µM; at p110delta (setting [2]), 0.0277 µM; on p110beta (setting [3]), 0.167 µM; on p110beta (setting [4]), 0.187 µM; on p110alpha (setting [5]), 0.0117 µM; at p110alpha (setting [6]) it was 0.0127 µM. Also, the IC50 was determined as 0.0149 µM at p120gamma (setting [7]) and 0.0277 µM on p120gamma (setting [8]).

In the case of `CN(C)c1ncc(-c2cnc3ccc(-c4cncc(NS(=O)(=O)c5ccccc5)c4)cn23)cn1` [TK2-71pZD2-86 (6a), N-(5-(3-(2-(dimethylamino)pyrimidin-5-yl)imidazo[1,2-a]pyridin-6-yl)pyridin-3-yl)benzenesulfonamide], the IC50 on p110delta (setting [1]) stood at 0.0335 µM; at p110delta (setting [2]), 0.0342 µM; at p110beta (setting [3]), 0.19 µM; on p110beta (setting [4]), 0.184 µM; at p110alpha (setting [5]), 0.0209 µM; on p110alpha (setting [6]), 0.0337 µM. Besides, the results for the IC50 on p120gamma (setting [7]) and at p120gamma (setting [8]) were 0.0186 µM and 0.0342 µM, respectively.

For the compound `O=S(=O)(Nc1cncc(-c2ccc3ncc(-c4ncccn4)n3c2)c1)c1ccccc1` [TK2-94p3-47 (6d), N-(5-(3-(pyrimidin-2-yl)imidazo[1,2-a]pyridin-6-yl)pyridin-3-yl)benzenesulfonamide], the IC50 was found to be 0.0108 µM on p110delta (setting [1]); 0.0085 µM on p110delta (setting [2]); 0.0276 µM on p110beta (setting [3]); 0.0449 µM on p110beta (setting [4]); 0.0089 µM at p110alpha (setting [5]); 0.0115 µM at p110alpha (setting [6]). The values for the IC50 on p120gamma (setting [7]) and on p120gamma (setting [8]) were 0.0075 µM and 0.0085 µM, respectively.

As for `O=S(=O)(Nc1cncc(-c2ccc3ncc(-c4cnc5ccnn5c4)n3c2)c1)c1ccccc1` [TK2-130p3-37 (6c), N-(5-(3-(pyrazolo[1,5-a]pyrimidin-6-yl)imidazo[1,2-a]pyridin-6-yl)pyridin-3-yl)benzenesulfonamide], the IC50 was determined as 0.0341 µM on p110delta (setting [1]); 0.031 µM on p110delta (setting [2]); 0.419 µM on p110beta (setting [3]); 0.479 µM at p110beta (setting [4]); 0.051 µM on p110alpha (setting [5]); 0.0613 µM at p110alpha (setting [6]). The IC50 worked out at 0.0502 µM on p120gamma (setting [7]) and 0.031 µM at p120gamma (setting [8]).

For `CN(C)c1ncc(-c2cnc3ccc(-c4cncc(NS(=O)(=O)c5ccccc5)c4)cn23)cn1` [drawing 16], on PI3Kα, the Ki was determined as 0.244 µM.

Consider `COc1ncc(-c2cnc3ccc(-c4cncc(NS(=O)(=O)c5ccccc5)c4)cn23)cn1` [drawing 17], for which, at PI3Kα, the affinity corresponds to a Ki of 0.07 µM.

In the case of `O=S(=O)(Nc1cncc(-c2ccc3ncc(-c4cnc5ccnn5c4)n3c2)c1)c1ccccc1` [drawing 18], on PI3Kα, the Ki is 0.329 µM.

Consider `O=S(=O)(Nc1cncc(-c2ccc3ncc(-c4ncccn4)n3c2)c1)c1ccccc1` [drawing 19], for which affinity at PI3Kα was put at a Ki of 0.1 µM.

The values above are taken from patent US10947225B2, “Phosphotidylinositol 3-kinase inhibitors” (Emory University, priority 2016, dated 2021).
